Where a SMILES comes first, the peptide text is derived from it. Bridges are numbered along the chain shown (N, C = ends). Where no end group is shown, it is not given here.
How the values were obtained:
[1] = Plasma stability of VIP peptide complex (remaining rate in rat plasma); format: in vitro ADME, SD rats; settings: VIP complexes, 37° C.; for remaining at 8 h, 0.5 μmol/L / remaining at 48 h, 0.5 μmol/L: SD; for remaining at 8 h, 0.5 μmol/L: read-out: Remaining rate in plasma after 8 hours (%); for remaining at 48 h, 0.5 μmol/L: read-out: Remaining rate in plasma after 48 hours; for Remaining rate in plasma after 8 hours (%) / Remaining rate in plasma after 48 hours: 0.5 μmol/L
Protocol: The plasma stability was evaluated in vitro, in order to inspect the biostability of the VIP peptide complex.
SD rats were anesthetized with diethyl ether, whole blood was collected, and a plasma fraction was separated therefrom. The VIP or VIP-peptide complex was added to the plasma so that the final concentration thereof was 0.5 μmol/L, and the mixture was incubated at 37° C. A sample was recovered after 0, 8 or 48 hours, and a remaining rate was evaluated by an HPLC/MS measurement of an amount of the VIP or VIP peptide complex.

endogenous VIP receptor = target: T1, endogenous VIP receptor (Homo sapiens, UniProt P41587); assay: cAMP productivity in SUP-T1 cells; format: cell-based; settings: 3-3000 nM, IBMX, 30 minutes
T1 construct: expressing an endogenous VIP receptor; host or cells: SUP-T1 human T-cell line
T1 sequence (P41587 24-438): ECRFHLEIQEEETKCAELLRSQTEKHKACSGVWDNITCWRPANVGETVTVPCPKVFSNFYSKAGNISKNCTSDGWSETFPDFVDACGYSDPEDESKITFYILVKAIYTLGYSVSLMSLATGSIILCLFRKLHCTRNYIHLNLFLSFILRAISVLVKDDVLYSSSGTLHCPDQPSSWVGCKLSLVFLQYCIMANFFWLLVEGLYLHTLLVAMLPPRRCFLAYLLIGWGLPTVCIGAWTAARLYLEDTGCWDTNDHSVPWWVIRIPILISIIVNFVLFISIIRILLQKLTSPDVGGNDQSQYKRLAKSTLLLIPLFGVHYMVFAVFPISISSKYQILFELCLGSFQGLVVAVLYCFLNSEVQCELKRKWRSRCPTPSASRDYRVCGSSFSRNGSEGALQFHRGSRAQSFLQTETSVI
Protocol: A productivity of cAMP was analyzed in vitro, in order to evaluate the activity intensity of the VIP peptide complexes showing the plasma stability in Experimental Example 4.
An intracellular cAMP productivity was evaluated using SUP-T1 cells which were derived from human T-cell, expressing an endogenous VIP receptor (purchased from ATCC). The SUP-T1 cells which were subjected to suspension culture for 48 or more hours were moved to a tube, and the cells were washed twice with a medium (RPMI-1640). After that, a medium including IBMX (3-isobutyl-1-methylxanthine), which was an inhibitor of a catabolic enzyme of the cAMP, was added thereto, and the mixture was incubated at 37° C. for 15 minutes. After centrifugation, the supernatant was removed, and an IBMX-containing medium including the VIP peptide complex was added thereto. The reaction was performed at 37° C. for 30 minutes. After the reaction, the tube was centrifuged, the supernatant was removed, and the cell lysate was added thereto. The mixture was incubated at 37° C. for 30 minutes to dissolve the cells, and the productivity was evaluated by the measurement of the cAMP. The cAMP measurement was performed using an enzyme-linked immunosorbent assay (ELISA) by chemiluminescence detection.
The activity intensity (%) of the VIP peptide complex was calculated according to the following formula.
Activity Intensity (%)=[{(the maximum amount of the cAMP produced in each VIP peptide complex)/(the maximum amount of the cAMP produced in native VIP)]×100

endogenous SSTR 5 = target: T2, endogenous SSTR 5 (Mus musculus, UniProt O08858); assay: Suppressibility of insulin secretion in MIN 6 cells; format: cell-based; settings: 20 mM glucose, 1-1000 nM
T2 construct: expressing an endogenous SSTR 5; endogenous in cells; host or cells: MIN 6 mouse insulinoma cells (obtained from a person)
T2 sequence (O08858 1-362): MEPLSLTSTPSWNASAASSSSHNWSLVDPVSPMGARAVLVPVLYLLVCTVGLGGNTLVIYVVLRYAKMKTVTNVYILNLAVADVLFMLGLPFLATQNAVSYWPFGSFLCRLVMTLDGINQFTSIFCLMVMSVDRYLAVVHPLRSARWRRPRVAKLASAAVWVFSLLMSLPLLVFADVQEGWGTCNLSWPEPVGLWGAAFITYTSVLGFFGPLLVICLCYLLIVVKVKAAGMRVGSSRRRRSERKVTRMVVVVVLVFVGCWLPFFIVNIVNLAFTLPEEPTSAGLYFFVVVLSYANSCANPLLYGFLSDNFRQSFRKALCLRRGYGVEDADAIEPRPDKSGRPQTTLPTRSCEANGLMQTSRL
Protocol: The suppressibility of insulin secretion was evaluated using MIN 6 (obtained from a person) which was an insulinoma cell derived from a mouse, expressing an endogenous SSTR 5. MIN 6 was seeded on a multi-plate, which was cultivated at 37° C. for 48 hours. […] A supernatant thereof was recovered, and an amount of insulin secreted was measured. The measurement of the insulin was performed in an enzyme-linked immunosorbent assay (ELISA), and an absorbance was measured at 450 nm (a sub-wavelength: 620 nm) after the addition of a substrate.
In this experiment, the activity evaluations of the native SRIF (Comparative Example 15) and the GAm (28-44)-SRIF-NH2(Example 29) were performed in a concentration of 1, 3, 10, 30, 100, 300, and 1000 nM, and the maximum suppression rate (%) of the insulin secretion was calculated. The maximum suppression rate (%) of the insulin secretion in the somatostatin peptide complex was calculated according to the following formula. Maximum Suppression Rate (%) of Insulin Secretion (%)=[{(the maximum value of the suppression of the insulin secretion in the SRIF peptide complex)/(the maximum value of the suppression of the insulin secretion in the native SRIF)]×100

[2] = Plasma stability of somatostatin peptide complex (remaining rate in rat plasma); settings: for remaining at 8 h, 0.5 μmol/L / remaining at 48 h, 0.5 μmol/L: SD, rat, plasma
Protocol: The plasma stability was evaluated in vitro, in order to inspect the biostability of the somatostatin peptide complex.
SD rats were anesthetized with diethyl ether, whole blood was collected, and a plasma fraction was separated therefrom. The somatostatin or somatostatin peptide complex was added to the plasma so that the final concentration thereof was 0.5 μmol/L, and the mixture was incubated at 37° C. A sample was recovered after 0, 8 or 48 hours, and a remaining rate was evaluated by an HPLC/MS measurement of an amount of the somatostatin or somatostatin peptide complex.

[3] = Plasma stability of ghrelin peptide complex (remaining rate in rat plasma); format: in vitro ADME, SD rats; settings: 37° C.
Protocol: Evaluation was performed in a manner in which after the treatment of the ghrelin or ghrelin peptide complex in plasma for a pre-determined time, an amount of change of the ghrelin or ghrelin peptide complex undecomposed was measured by an HPLC/MS.

[4] = somatostatin complexes, rat plasma, 0.5 μmol/L, 37° C.

Compound | remaining at 8 h, 0.5 μmol/L [1] | remaining at 48 h, 0.5 μmol/L [1] | Remaining rate in plasma after 8 hours (%) [1] | Activity Intensity (%), maximum amount of cAMP produced relative to native VIP (endogenous VIP receptor) | Remaining rate in plasma after 48 hours [1] | further results
CC[C@H](C)[C@H](NC(=O)[C@H](CO)NC(=O)[C@H](CC(N)=O)NC(=O)[C@H](CC(C)C)NC(=O)[C@H](Cc1ccc(O)cc1)NC(=O)[C@H](CCCCN)NC(=O)[C@H](CCCCN)NC(=O)[C@@H](NC(=O)[C@H](C)NC(=O)[C@H](CCSC)NC(=O)[C@H](CCC(N)=O)NC(=O)[C@H](CCCCN)NC(=O)[C@H](CCCNC(=N)N)NC(=O)[C@H](CC(C)C)NC(=O)[C@H](CCCNC(=N)N)NC(=O)[C@@H](NC(=O)[C@H](Cc1ccc(O)cc1)NC(=O)[C@H](CC(N)=O)NC(=O)[C@H](CC(=O)O)NC(=O)[C@@H](NC(=O)[C@H](Cc1ccccc1)NC(=O)[C@@H](NC(=O)[C@H](C)NC(=O)[C@H](CC(=O)O)NC(=O)[C@H](CO)NC(=O)[C@@H](N)Cc1c[nH]cn1)C(C)C)[C@@H](C)O)[C@@H](C)O)C(C)C)C(=O)N[C@@H](CC(C)C)C(=O)N[C@@H](CC(N)=O)C(N)=O [Comparative Example 14, VIP(1-28)-NH2, reference compound] | 0% | 0% | completely decomposed | 100% | – | –
HSDAVFTDNYTRLRKQMAVKKYLNSILNEGVKALIDEILAA-NH2 [Example 26, VIP(1-28)-GAm(32-44)-NH2] | 99% | 47% | not totally decomposed | 85% | 47% | –
CC[C@H](C)[C@H](NC(=O)[C@H](CCC(=O)O)NC(=O)[C@H](CC(=O)O)NC(=O)[C@@H](NC(=O)[C@H](CC(C)C)NC(=O)[C@H](CC(N)=O)NC(=O)[C@H](CC(C)C)NC(=O)[C@@H](NC(=O)[C@H](CO)NC(=O)[C@H](CC(N)=O)NC(=O)[C@H](CC(C)C)NC(=O)[C@H](Cc1ccc(O)cc1)NC(=O)[C@H](CCCCN)NC(=O)[C@H](CCCCN)NC(=O)[C@@H](NC(=O)[C@H](C)NC(=O)[C@H](CCSC)NC(=O)[C@H](CCC(N)=O)NC(=O)[C@H](CCCCN)NC(=O)[C@H](CCCNC(=N)N)NC(=O)[C@H](CC(C)C)NC(=O)[C@H](CCCNC(=N)N)NC(=O)[C@@H](NC(=O)[C@H](Cc1ccc(O)cc1)NC(=O)[C@H](CC(N)=O)NC(=O)[C@H](CC(=O)O)NC(=O)[C@@H](NC(=O)[C@H](Cc1ccccc1)NC(=O)[C@@H](NC(=O)[C@H](C)NC(=O)[C@H](CC(=O)O)NC(=O)[C@H](CO)NC(=O)[C@@H](N)Cc1c[nH]cn1)C(C)C)[C@@H](C)O)[C@@H](C)O)C(C)C)[C@@H](C)CC)[C@@H](C)CC)C(=O)N[C@@H](CC(C)C)C(=O)N[C@@H](C)C(=O)N[C@@H](C)C(N)=O [Example 25, VIP(1-28)-GAm(37-44)-NH2] | 118% | 118% | not totally decomposed | 81% | 118% | –
CC[C@H](C)[C@H](NC(=O)[C@H](CCC(=O)O)NC(=O)[C@H](CC(=O)O)NC(=O)[C@@H](NC(=O)[C@H](CC(C)C)NC(=O)[C@H](C)NC(=O)[C@H](CCCCN)NC(=O)[C@@H](NC(=O)CNC(=O)[C@H](CCC(=O)O)NC(=O)[C@@H](NC(=O)[C@@H](NC(=O)[C@H](CCCCN)NC(=O)[C@H](C)N)[C@@H](C)O)C(C)C)C(C)C)[C@@H](C)CC)C(=O)N[C@@H](CC(C)C)C(=O)N[C@@H](C)C(=O)N[C@@H](C)C(=O)N[C@@H](C)C(=O)NCC(=O)N[C@H]1CSSC[C@@H](C(N)=O)NC(=O)[C@H](CO)NC(=O)[C@H]([C@@H](C)O)NC(=O)[C@H](Cc2ccccc2)NC(=O)[C@H]([C@@H](C)O)NC(=O)[C@H](CCCCN)NC(=O)[C@H](Cc2c[nH]c3ccccc23)NC(=O)[C@H](Cc2ccccc2)NC(=O)[C@H](Cc2ccccc2)NC(=O)[C@H](CC(N)=O)NC(=O)[C@H](CCCCN)NC1=O [Example 29, GAm(28-44)-SRIF(1-14)-NH2] (H-AKTVEGVKALIDEILAAAGCKNFFWKTFTSC-NH2; disulfide 20-31; N-terminus assumed) | – | – | – | – | – | Suppression rate of insulin secretion (%), maximum, relative to native SRIF (endogenous SSTR 5): 90%; remaining at 8 h, 0.5 μmol/L [2]: 80%; remaining at 48 h, 0.5 μmol/L [2]: 23%; Remaining rate in plasma after 8 hours (%) [2, 4]: 80%; Remaining rate in plasma after 48 hours (%) ([2]; somatostatin complexes, rat plasma, 0.5 μmol/L, 37° C., 48 hours): 23%
HSDAVFTDNYTRLRKQMAVKKYLNSILNAKTVEGVKALIDEILAA-NH2 [Example 27, VIP(1-28)-GAm(28-44)-NH2] | 109% | 35% | not totally decomposed | 67% | 35% | –
C[C@H](N)C(=O)NCC(=O)N[C@H]1CSSC[C@@H](C(N)=O)NC(=O)[C@H](CO)NC(=O)[C@H]([C@@H](C)O)NC(=O)[C@H](Cc2ccccc2)NC(=O)[C@H]([C@@H](C)O)NC(=O)[C@H](CCCCN)NC(=O)[C@H](Cc2c[nH]c3ccccc23)NC(=O)[C@H](Cc2ccccc2)NC(=O)[C@H](Cc2ccccc2)NC(=O)[C@H](CC(N)=O)NC(=O)[C@H](CCCCN)NC1=O [Comparative Example 15, SRIF(1-14)-NH2, reference compound] | – | – | – | – | – | Suppression rate of insulin secretion (%), maximum, relative to native SRIF (endogenous SSTR 5): 100%; remaining at 8 h, 0.5 μmol/L [2]: 0%; remaining at 48 h, 0.5 μmol/L [2]: 0%; Remaining rate in plasma after 8 hours (%) [2, 4]: completely decomposed
CCCCCCCC(=O)OC[C@H](NC(=O)[C@H](CO)NC(=O)CN)C(=O)N[C@@H](Cc1ccccc1)C(=O)N[C@@H](CC(C)C)C(=O)N[C@@H](CO)C(=O)N1CCC[C@H]1C(=O)N[C@@H](CCC(=O)O)C(=O)N[C@@H](Cc1c[nH]cn1)C(=O)N[C@@H](CCC(N)=O)C(=O)N[C@@H](CCCNC(=N)N)C(=O)N[C@H](C(=O)N[C@@H](CCC(N)=O)C(=O)N[C@@H](CCC(N)=O)C(=O)N[C@@H](CCCNC(=N)N)C(=O)N[C@@H](CCCCN)C(=O)N[C@@H](CCC(=O)O)C(=O)N[C@@H](CO)C(=O)N[C@@H](CCCCN)C(=O)N[C@@H](CCCCN)C(=O)N1CCC[C@H]1C(=O)N1CCC[C@H]1C(=O)N[C@@H](C)C(=O)N[C@@H](CCCCN)C(=O)N[C@@H](CC(C)C)C(=O)N[C@@H](CCC(N)=O)C(=O)N1CCC[C@H]1C(=O)N[C@@H](CCCNC(=N)N)C(N)=O)C(C)C [Comparative Example 17, Ghrelin(1-28)-NH2] | – | – | – | – | – | Remaining rate in plasma after 2 hours (%) ([3]; 0.5 μmol/L, 2 hours): 14%; remaining at 0.5 h, 0.5 μmol/L ([3]; SD, 0.5 hour, read-out: Remaining rate in plasma after 0.5 hour (%)): 50%; remaining at 2 h, 0.5 μmol/L ([3]; SD, 2 hours, read-out: Remaining rate in plasma after 2 hours (%)): 14%; remaining at 8 h, 0.5 μmol/L ([3]; SD, 8 hours, read-out: Remaining rate in plasma after 8 hours (%)): 0%

Source: patent US20130123460A1, “PEPTIDE FOR IMPROVING BIOSTABILITY OF BIOACTIVE SUBSTANCE, AND BIOACTIVE SUBSTANCE HAVING IMPROVED BIOSTABILITY” (priority 2010, published 2013)
